This note sets out measurements from publication PMC7571155, “Design, Synthesis and Biological Investigation of Flavone Derivatives as Potential Multi-Receptor Atypical Antipsychotics” (Molecules, 2020).

Broadly, the Ki is the dissociation constant of the complex between target and ligand, obtained from inhibition or displacement. The melting point is the temperature of the solid-liquid transition.

Read-outs that look alike come from different tables or passages of the source.

One data set deals with D2 receptor (Rattus norvegicus, UniProt P61169). Briefly: D2 receptor radioligand binding (3H-spiperone). The following applies: 3H-spiperone, mean ± SEM of three experiments.
A further data set concerns the target 5-HT2A receptor (Rattus norvegicus, UniProt P14842). Put plainly: 5-HT2A receptor radioligand binding (3H-ketanserin). The following applies: rat brain cortex, 3H-ketanserin, mean ± SEM of three experiments.
Where [1] appears, read: read-out: Receptor Affinity Ki ± SEM D2, rat striatum.
Where [2] appears, read: read-out: Receptor Affinity Ki ± SEM 5-HT2A.
The mark [3] stands for this setting: Receptor Affinity Ki ± SEM D2, rat striatum.
[4] abbreviates: Receptor Affinity Ki ± SEM 5-HT2A.

Chain of D2 receptor (P61169 whole entry): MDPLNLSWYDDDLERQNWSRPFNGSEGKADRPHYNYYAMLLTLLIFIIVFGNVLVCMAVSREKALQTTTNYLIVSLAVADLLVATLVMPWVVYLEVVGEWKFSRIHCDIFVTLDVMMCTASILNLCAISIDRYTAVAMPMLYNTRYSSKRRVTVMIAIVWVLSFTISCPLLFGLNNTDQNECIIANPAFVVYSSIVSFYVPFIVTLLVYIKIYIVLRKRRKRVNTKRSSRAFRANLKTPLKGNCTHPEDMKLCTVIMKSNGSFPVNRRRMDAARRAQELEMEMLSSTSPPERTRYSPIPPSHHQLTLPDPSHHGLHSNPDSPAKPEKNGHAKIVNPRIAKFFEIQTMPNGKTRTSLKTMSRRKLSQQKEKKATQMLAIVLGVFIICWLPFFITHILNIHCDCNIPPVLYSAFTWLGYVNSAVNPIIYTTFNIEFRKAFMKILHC
Chain of 5-HT2A receptor (P14842 whole entry): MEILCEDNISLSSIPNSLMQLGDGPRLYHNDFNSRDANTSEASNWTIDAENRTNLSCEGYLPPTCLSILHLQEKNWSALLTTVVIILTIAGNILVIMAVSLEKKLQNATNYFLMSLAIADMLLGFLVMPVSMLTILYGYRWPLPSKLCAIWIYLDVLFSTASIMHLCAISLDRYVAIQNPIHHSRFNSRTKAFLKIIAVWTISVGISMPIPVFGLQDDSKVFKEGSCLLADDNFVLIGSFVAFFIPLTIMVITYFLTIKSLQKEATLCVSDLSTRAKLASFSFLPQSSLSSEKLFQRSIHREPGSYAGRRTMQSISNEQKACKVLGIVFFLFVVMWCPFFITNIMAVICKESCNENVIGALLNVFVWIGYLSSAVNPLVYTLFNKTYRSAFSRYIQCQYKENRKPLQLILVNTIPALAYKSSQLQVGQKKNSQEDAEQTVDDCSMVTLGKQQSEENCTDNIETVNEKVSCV

Take “7-(4-(4-(6-Fluorobenzo[d]isoxazol-3-yl)piperidin-1-yl)butoxy)-5-methylchroman-4-one [Compound 13b]”: the Ki at D2 receptor (setting [1]) worked out at 28.9 ± 3.4 nM; on 5-HT2A receptor (setting [2]) it was 10.5 ± 1.3 nM.
Regarding “7-(4-(4-(6-Fluorobenzo[d]isoxazol-3-yl)piperidin-1-yl)butoxy)-8-methylchroman-4-one [Compound 13d]”, the results for the Ki at D2 receptor (setting [1]) and at 5-HT2A receptor (setting [2]) were 22.9 ± 3.1 nM and 13.7 ± 1.9 nM, respectively.
As for `CC1(C)CC(=O)c2ccc(OCCCCN3CCN(c4ccccc4)CC3)cc2O1` [Compound 6a, 2,2-Dimethyl-7-(4-(4-phenylpiperazin-1-yl)butoxy) chroman-4-one], the melting point fell in the range of 131 to 133 °C. Also, affinity on D2 receptor (setting [3]) was put at a Ki of 553 ± 68.7 nM. At 5-HT2A receptor (setting [4]), this molecule yielded a Ki of 89.8 ± 11.3 nM.
Turning to `CC1(C)CC(=O)c2ccc(OCCCCN3CCN(c4ccccc4F)CC3)cc2O1` [Compound 6b, 7-(4-(4-(2-Fluorophenyl)piperazin-1-yl)butoxy)-2,2-dimethylchroman-4-one], the melting point fell in the range of 135 to 137 °C. Besides, on D2 receptor (setting [3]), the affinity, expressed as Ki, was 777 ± 84.7 nM. In addition, the affinity on 5-HT2A receptor (setting [4]), expressed as Ki, was 72.5 ± 8.4 nM.
`CC1(C)CC(=O)c2ccc(OCCCCN3CCN(c4cccc(C(F)(F)F)c4)CC3)cc2O1` [Compound 6c, 2,2-Dimethyl-7-(4-(4-(3-(trifluoromethyl)phenyl)piperazin-1-yl)butoxy) chroman-4-one] showed a melting point of 139 to 140 °C. This molecule also gave an inhibition constant (Ki) at D2 receptor (setting [3]) of 1130 ± 108 nM. Further, the affinity on 5-HT2A receptor (setting [4]), expressed as Ki, was 147 ± 16.9 nM.
Molecule `COc1ccccc1N1CCN(CCCCOc2ccc3c(c2)OC(C)(C)CC3=O)CC1` [Compound 6d, 7-(4-(4-(2-Methoxyphenyl)piperazin-1-yl)butoxy)-2,2-dimethylchroman-4-one] yielded a melting point of 128 to 130 °C. In addition, the Ki at D2 receptor (setting [3]) was 2350 ± 317 nM. On 5-HT2A receptor (setting [4]), this molecule showed a Ki of 86.8 ± 5.6 nM.
Molecule `CC1(C)CC(=O)c2ccc(OCCCCN3CCN(c4ccccn4)CC3)cc2O1` [Compound 6e, 2,2-Dimethyl-7-(4-(4-(pyridin-2-yl)piperazin-1-yl)butoxy) chroman-4-one] showed a melting point of 127 to 129 °C. In addition, the affinity on D2 receptor (setting [3]) corresponds to a Ki of 4590 ± 510 nM. Moreover, at 5-HT2A receptor (setting [4]), the affinity, expressed as Ki, was 722 ± 64.9 nM.
`CC1(C)CC(=O)c2ccc(OCCCCN3CCN(c4ncccn4)CC3)cc2O1` [Compound 6f, 2,2-Dimethyl-7-(4-(4-(pyrimidin-2-yl)piperazin-1-yl)butoxy) chroman-4-one]: the melting point lay in the range of 128 to 131 °C. On D2 receptor (setting [3]), this molecule registered an inhibition constant (Ki) greater than 10000 nM. This molecule also displayed a Ki on 5-HT2A receptor (setting [4]) of 1140 ± 152 nM.
`CC1(C)CC(=O)c2ccc(OCCCCN3CCN(Cc4ccc5c(c4)OCO5)CC3)cc2O1` [Compound 6g, 7-(4-(4-(Benzo[d] [1, 3]dioxol-5-ylmethyl)piperazin-1-yl)butoxy)-2,2-dimethylchroman-4-one] came in with a melting point of 112 to 114 °C. On D2 receptor (setting [3]), this molecule returned an inhibition constant (Ki) of 1140 ± 140 nM. Moreover, affinity on 5-HT2A receptor (setting [4]) was put at a Ki of 380 ± 39.1 nM.
For `CC1(C)CC(=O)c2ccc(OCCCCN3CCN(c4cccc5sccc45)CC3)cc2O1` [Compound 6h, 7-(4-(4-(Benzo[b]thiophen-4-yl)piperazin-1-yl)butoxy)-2,2-dimethylchroman-4-one], the values for the Ki on D2 receptor (setting [3]) and on 5-HT2A receptor (setting [4]) were 43.1 ± 5.7 nM and 55.2 ± 4.9 nM, respectively.
`CC1(C)CC(=O)c2ccc(OCCCCN3CCN(c4nsc5ccccc45)CC3)cc2O1` [Compound 6i, 7-(4-(4-(Benzo[d]isothiazol-3-yl)piperazin-1-yl)butoxy)-2,2-dimethylchroman-4-one] displayed a melting point of 119 to 120 °C. Further, the Ki on D2 receptor (setting [3]) amounted to 26.2 ± 2.7 nM. Further, the affinity on 5-HT2A receptor (setting [4]), expressed as Ki, was 19.5 ± 2.2 nM.
With `COc1ccccc1N1CCN(CCCOc2ccc3c(c2)OC(C)(C)CC3=O)CC1` [Compound 6k, 7-(3-(4-(2-Methoxyphenyl)piperazin-1-yl)propoxy)-2,2-dimethylchroman-4-one], the melting point lay in the range of 103 to 105 °C. The molecule also registered a Ki at D2 receptor (setting [3]) of 3160 ± 466 nM. On 5-HT2A receptor (setting [4]), the affinity, expressed as Ki, was 33.1 ± 4.5 nM.
Consider `O=C1CCOc2cc(OCCCCN3CCC(c4noc5cc(F)ccc45)CC3)ccc21` [Compound 13a, 7-(4-(4-(6-Fluorobenzo[d]isoxazol-3-yl)piperidin-1-yl)butoxy)chroman-4-one], for which the inhibitory constant (Ki) on D2 receptor (setting [3]) stood at 22.5 ± 2.6 nM; at 5-HT2A receptor (setting [4]), 9.6 ± 0.8 nM.
